19 compounds from patent publication EP0777471B1, “INHIBITION OF LEUKOTRIENE BIOSYNTHESIS WITH UREA DERIVATIVES” (MINNESOTA MINING AND MANUFACTURING COMPANY, priority 1994, dated 1996) can be followed below.

Structures are written as SMILES.

The first test addresses T1, 5-lipoxygenase (Homo sapiens, UniProt P09917).
T1 construct: Whole human blood is collected by venipuncture into EDTA; endogenous in cells; host or cells: leukocytes isolated from whole human blood (dextran sedimentation, hypotonic lysis)
T1 sequence (P09917 1-674): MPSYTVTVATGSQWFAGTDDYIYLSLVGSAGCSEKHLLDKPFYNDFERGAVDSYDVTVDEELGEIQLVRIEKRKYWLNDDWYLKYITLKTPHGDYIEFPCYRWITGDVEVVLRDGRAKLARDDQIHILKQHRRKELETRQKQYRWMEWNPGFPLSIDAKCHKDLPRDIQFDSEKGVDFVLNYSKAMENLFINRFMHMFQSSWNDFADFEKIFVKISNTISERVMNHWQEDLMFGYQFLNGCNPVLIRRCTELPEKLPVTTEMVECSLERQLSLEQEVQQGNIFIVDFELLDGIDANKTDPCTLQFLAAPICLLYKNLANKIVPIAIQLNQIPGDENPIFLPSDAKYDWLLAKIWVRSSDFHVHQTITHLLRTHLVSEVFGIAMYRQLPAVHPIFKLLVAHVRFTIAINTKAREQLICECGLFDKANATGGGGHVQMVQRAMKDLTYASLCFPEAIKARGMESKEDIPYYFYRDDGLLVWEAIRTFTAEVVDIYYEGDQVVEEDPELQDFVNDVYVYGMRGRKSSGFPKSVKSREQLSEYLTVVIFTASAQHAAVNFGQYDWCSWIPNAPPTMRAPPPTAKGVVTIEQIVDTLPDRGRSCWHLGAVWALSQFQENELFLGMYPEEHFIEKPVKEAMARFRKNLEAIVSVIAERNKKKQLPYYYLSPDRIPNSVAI
Kind of test: 5-Lipoxygenase inhibition in human leukocytes (A23187-stimulated, LTC4 radioimmunoassay). Type of test: cell-based.
Details: not given
How it is done: The test method described below measures the ability of compounds to inhibit 5-lipoxygenase activity in human leukocytes.
Whole human blood is collected by venipuncture into EDTA (1.4 mL of 0.25M per 60 mL of whole blood). The red blood cells are sedimented with a 6% dextran/0.9% sodium chloride solution at a ratio of 25 mL whole blood to 15 mL dextran solution. The blood/dextran combination is mixed by inversion and the red blood cells are allowed to settle out for 45 minutes at ambient temperature. The plasma/dextran supernatant is removed then centrifuged at ambient temperature at 3000 rpm for 10 minutes. The plasma/dextran supernatant is removed and the cells are resuspended in 10 mL of the plasma/dextran solution. […] The pellet is then resuspended into Tris buffer containing 1 mM calcium chloride to provide approximately 1.0 X 10^7 cells/mL.
Compounds are dissolved in dimethyl sulfoxide. […] Each concentration is tested in duplicate.
A 15 µL portion of Tris buffer containing 1 mM calcium chloride is added to each well of a 96 well microtiter plate. A 1 µL portion of drug solution or vehicle (dimethyl sulfoxide) is added to each well followed by the addition of an 75 µL portion of the cell suspension. The plates are gently mixed then allowed to stand at ambient temperature for 10 minutes. A 10 µL portion of 30 µM A23187 Calcium Ionophore (prepared by dissolving the ionophore in DMSO and then diluting 1:80 into the Tris buffer) is added to each well except the wells that contain the blanks (The blank wells measure the level of LTC4 production in the absence of A23187.). The plates are gently mixed then incubated at 37°C for 10 minutes.
Following incubation the plates are centrifuged at 2000 rpm for 1.5 minutes and the supernatant is removed as quickly as possible to stop the reaction. The supernatants are frozen at -20°C until they are assayed.
The supernatants are assayed for the presence of Leukotriene C4 by radioimmunoassay which is performed according to the manufacturer's (Advanced Magnetics; Cambridge, MA) instructions.
Consider `CC(C)N(O)C(=O)Nc1ccccc1Cl` [Compound 24, 3-(2-chlorophenyl)-1-hydroxy-1-(1-methylethyl)urea], for which the half-maximal inhibitory concentration (IC50) (as a rule, the concentration needed to halve the response being measured) was found to be 200 nM.

Still in this test, the particulars now being: human leukocytes, A23187 Calcium Ionophore, LTC4 formed; read-out: IC50.
As for `CC(C)N(O)C(=O)Nc1ccccc1F` [Compound 20, 3-(2-fluorophenyl)-1-hydroxy-1-(1-methylethyl)urea], the concentration for half-maximal inhibition (IC50) stood at 700 nM.
Regarding `COc1ccc(NC(=O)N(O)C(C)C)cc1` [Compound 23, 1-hydroxy-3-(4-methoxyphenyl)-1-(1-methylethyl)urea], the half-inhibitory concentration (IC50) is 150 nM.
As to `CN(O)C(=O)Nc1cccc(S(C)(=O)=O)c1` [Compound 59, 1-Hydroxy-1-methyl-3-[3-(methylsulfonyl)phenyl]urea], the IC50 was 1100 nM.
In the case of `COc1cccc(NC(=O)N(C)O)c1` [Compound 5, 1-hydroxy-3-(3-methoxyphenyl)-1-methylurea], the half-inhibitory concentration (IC50) amounted to 420 nM.
Consider `CN(O)C(=O)Nc1ccccc1` [Compound 10, 1-hydroxy-1-methyl-3-phenylurea], for which the IC50 was 20 nM.
For the compound `CC(C)N(O)C(=O)Nc1ccccc1` [Compound 17, 1-hydroxy-1-(1-methylethyl)-3-phenylurea], the half-maximal inhibitory concentration (IC50) was 43 nM.
As to `CC(C)CN(O)C(=O)Nc1ccccc1` [Compound 54, 1-Hydroxy-1-(2-methylpropyl)-3-phenylurea], the half-inhibitory concentration (IC50) came out at 94 nM.
On to `Cc1cccc(NC(=O)N(O)C(C)C)c1` [Compound 21, 1-hydroxy-1-(1-methylethyl)-3-(3-methylphenyl)urea], for which the IC50 is 230 nM.
Same read-out and setting: then `CC(C)N(O)C(=O)Nc1ccc(Br)cc1` [Compound 19, 3-(4-bromophenyl)-1-hydroxy-1-(1-methylethyl)urea], with 100 nM; and `Cc1ccccc1NC(=O)N(O)C(C)C` [Compound 25, 1-hydroxy-1-(1-methylethyl)-3-(2-methylphenyl)urea], with 130 nM; and `CC(C)N(O)C(=O)Nc1ccc(F)cc1` [Compound 18, 3-(4-fluorophenyl)-1-hydroxy-1-(1-methylethyl)urea], with 210 nM.
Still for that read-out and setting: with `CN(O)C(=O)Nc1cccc(Br)c1` [Compound 6, 3-(3-bromophenyl)-1-hydroxy-1-methylurea] the figure was 70 nM; with `CSc1ccc(NC(=O)N(C)O)cc1` [Compound 1, 1-Hydroxy-1-methyl-3-[4-(methylthio)phenyl]urea], 83 nM; with `CN(O)C(=O)Nc1cccc(F)c1` [Compound 8, 3-(3-fluorophenyl)-1-hydroxy-1-methylurea], 680 nM.
Turning to `CSc1cccc(NC(=O)N(O)C(C)C)c1` [Compound 16, 1-hydroxy-1-(1-methylethyl)-3-[3-(methylthio)phenyl]urea], the concentration for half-maximal inhibition (IC50) was 8 nM.
`CN(O)C(=O)Nc1cccc([N+](=O)[O-])c1` [Compound 9, 1-hydroxy-1-methyl-3-(3-nitrophenyl)urea]: the half-inhibitory concentration (IC50) was 80 nM.
Take `CC(C)CCN(O)C(=O)Nc1ccccc1` [Compound 44, 1-hydroxy-1-(3-methylbutyl)-3-phenylurea]: the IC50 came out at 10 nM.
Regarding `Cc1cccc(NC(=O)N(C)O)c1` [Compound 7, 1-hydroxy-1-methyl-3-(3-methylphenyl)urea], the IC50 was 280 nM.
